ChEMBL document CHEMBL4308841, “Synthesis, in vitro antiproliferative activity, and kinase inhibitory effects of pyrazole-containing diarylureas and diarylamides” (Eur J Med Chem, 2018)

How the values were obtained:
K562 [1] = assay: Growth inhibition of human K562 cells incubated for 48 hrs by sulforhodamine B assay; assay type: functional, cell-based; conditions: K562, 48 h
HOP-62 [2] = assay: Growth inhibition of human HOP62 cells incubated for 48 hrs by sulforhodamine B assay; assay type: functional, cell-based; conditions: HOP-62, 48 h
HT-29 [3] = assay: Growth inhibition of human HT-29 cells incubated for 48 hrs by sulforhodamine B assay; assay type: functional, cell-based; conditions: HT-29, 48 h
A498 [4] = assay: Growth inhibition of human A498 cells incubated for 48 hrs by sulforhodamine B assay; assay type: functional, cell-based; conditions: A498, 48 h
PC-3 [5] = assay: Growth inhibition of human PC3 cells incubated for 48 hrs by sulforhodamine B assay; assay type: functional, cell-based; conditions: PC-3, 48 h
SR [6] = assay: Growth inhibition of human SR cells assessed as cell growth at 0.01 uM incubated for 48 hrs by sulforhodamine B assay relative to control; assay type: functional; conditions: read-out: Activity
A549 [7] = assay: Growth inhibition of human A549/ATCC cells assessed as cell growth at 0.01 uM incubated for 48 hrs by sulforhodamine B assay relative to control; assay type: functional; conditions: A549, 48 h, read-out: Activity
HOP-62 [8] = assay: Growth inhibition of human HOP62 cells assessed as cell growth at 0.01 uM incubated for 48 hrs by sulforhodamine B assay relative to control; assay type: functional; conditions: HOP-62, 48 h, read-out: Activity
NCI-H23 = assay: Growth inhibition of human NCI-H23 cells assessed as cell growth at 0.01 uM incubated for 48 hrs by sulforhodamine B assay relative to control; assay type: functional; conditions: NCI-H23, 48 h, read-out: Activity
SK-MEL-5 = assay: Growth inhibition of human SK-MEL-5 cells assessed as cell growth at 0.01 uM incubated for 48 hrs by sulforhodamine B assay relative to control; assay type: functional; conditions: SK-MEL-5, 48 h, read-out: Activity
ACHN = assay: Growth inhibition of human ACHN cells assessed as cell growth at 0.01 uM incubated for 48 hrs by sulforhodamine B assay relative to control; assay type: functional; conditions: read-out: Activity
SN12C = assay: Growth inhibition of human SN12C cells assessed as cell growth at 0.01 uM incubated for 48 hrs by sulforhodamine B assay relative to control; assay type: functional; conditions: read-out: Activity
PC-3 [9] = assay: Growth inhibition of human PC3 cells assessed as cell growth at 0.01 uM incubated for 48 hrs by sulforhodamine B assay relative to control; assay type: functional; conditions: PC-3, 48 h, read-out: Activity
HT-29 [10] = assay: Growth inhibition of human HT-29 cells assessed as cell growth at 0.1 uM incubated for 48 hrs by sulforhodamine B assay relative to control; assay type: functional; conditions: HT-29, 48 h, read-out: Activity
SF-268 = assay: Growth inhibition of human SF268 cells assessed as cell growth at 0.1 uM incubated for 48 hrs by sulforhodamine B assay relative to control; assay type: functional; conditions: SF-268, 48 h, read-out: Activity
OVCAR-4 [11] = assay: Growth inhibition of human OVCAR4 cells assessed as cell growth at 0.1 uM incubated for 48 hrs by sulforhodamine B assay relative to control; assay type: functional; conditions: OVCAR-4, 48 h, read-out: Activity
MDA-MB-231 [12] = assay: Growth inhibition of human MDA-MB-231 cells assessed as cell growth at 0.1 uM incubated for 48 hrs by sulforhodamine B assay relative to control; assay type: functional; conditions: MDA-MB-231, 48 h, read-out: Activity
K562 [13] = assay: Growth inhibition of human K562 cells assessed as cell growth at 1 uM incubated for 48 hrs by sulforhodamine B assay relative to control; assay type: functional; conditions: K562, 48 h, read-out: Activity
NCI-H226 = assay: Growth inhibition of human NCI-H226 cells assessed as cell growth at 1 uM incubated for 48 hrs by sulforhodamine B assay relative to control; assay type: functional; conditions: NCI-H226, 48 h, read-out: Activity
KM12 = assay: Growth inhibition of human KM12 cells assessed as cell growth at 1 uM incubated for 48 hrs by sulforhodamine B assay relative to control; assay type: functional; conditions: KM12, 48 h, read-out: Activity
LOX IMVI = assay: Growth inhibition of human LOXIMVI cells assessed as cell growth at 1 uM incubated for 48 hrs by sulforhodamine B assay relative to control; assay type: functional; conditions: read-out: Activity
OVCAR-4 [14] = assay: Growth inhibition of human OVCAR4 cells assessed as cell growth at 1 uM incubated for 48 hrs by sulforhodamine B assay relative to control; assay type: functional; conditions: OVCAR-4, 48 h, read-out: Activity
SK-OV-3 = assay: Growth inhibition of human SKOV3 cells assessed as cell growth at 1 uM incubated for 48 hrs by sulforhodamine B assay relative to control; assay type: functional; conditions: SK-OV-3, 48 h, read-out: Activity
A498 [15] = assay: Growth inhibition of human A498 cells assessed as cell growth at 1 uM incubated for 48 hrs by sulforhodamine B assay relative to control; assay type: functional; conditions: A498, 48 h, read-out: Activity
MDA-MB-231 [16] = assay: Growth inhibition of human MDA-MB-231 cells assessed as cell growth at 1 uM incubated for 48 hrs by sulforhodamine B assay relative to control; assay type: functional; conditions: MDA-MB-231, 48 h, read-out: Activity
SR [17] = assay: Growth inhibition of human SR cells assessed as cell growth at 100 uM incubated for 48 hrs by sulforhodamine B assay relative to control; assay type: functional; conditions: read-out: Activity
A549 [18] = assay: Growth inhibition of human A549/ATCC cells assessed as cell growth at 100 uM incubated for 48 hrs by sulforhodamine B assay relative to control; assay type: functional; conditions: A549, 48 h, read-out: Activity
Malme-3M = assay: Growth inhibition of human MALME-3M cells assessed as cell growth at 100 uM incubated for 48 hrs by sulforhodamine B assay relative to control; assay type: functional; conditions: read-out: Activity
OVCAR-3 = assay: Growth inhibition of human OVCAR3 cells assessed as cell growth at 100 uM incubated for 48 hrs by sulforhodamine B assay relative to control; assay type: functional; conditions: OVCAR-3, 48 h, read-out: Activity
OVCAR-5 = assay: Growth inhibition of human OVCAR5 cells assessed as cell growth at 100 uM incubated for 48 hrs by sulforhodamine B assay relative to control; assay type: functional; conditions: OVCAR-5, 48 h, read-out: Activity
OVCAR-8 = assay: Growth inhibition of human OVCAR8 cells assessed as cell growth at 100 uM incubated for 48 hrs by sulforhodamine B assay relative to control; assay type: functional; conditions: OVCAR-8, 48 h, read-out: Activity
[19] = read-out: LC50 (the source's name)
[20] = read-out: pLC50 (the source's name) (converted)

## O=C(Nc1cccc(-n2cc(-c3ccncc3)c(-c3cc(O)cc(Cl)c3)n2)c1)Nc1ccc(Cl)c(C(F)(F)F)c1
K562 [1]; read-out: GI50
  GI50: 2.59 µM
K562 [1]; read-out: LC50
  LC50: > 100 µM
K562 [1]; read-out: TGI
  TGI: 11 µM
K562 [1]; read-out: pGI50 (converted)
  GI50: 2.57 µM
K562 [1]; read-out: pLC50 (converted)
  LC50: > 100 µM
K562 [1]; read-out: pTGI (converted)
  TGI: 12 µM
HOP-62 [2]; read-out: GI50
  GI50: 3.06 µM
HOP-62 [2]; [19]
  CC50: > 100 µM
HOP-62 [2]; read-out: TGI
  TGI: 13.4 µM
HOP-62 [2]; read-out: pGI50 (converted)
  GI50: 3.09 µM
HOP-62 [2]; [20]
  CC50: > 100 µM
HOP-62 [2]; read-out: pTGI (converted)
  TGI: 13.5 µM
HT-29 [3]; read-out: GI50
  GI50: 2.12 µM
HT-29 [3]; [19]
  CC50: 95.9 µM
HT-29 [3]; read-out: TGI
  TGI: 45.7 µM
HT-29 [3]; read-out: pGI50 (converted)
  GI50: 2.14 µM
HT-29 [3]; [20]
  CC50: 10 µM
HT-29 [3]; read-out: pTGI (converted)
  TGI: 4.57 µM
A498 [4]; read-out: GI50
  GI50: 3.9 µM
A498 [4]; [19]
  CC50: 44 µM
A498 [4]; read-out: TGI
  TGI: 15.5 µM
A498 [4]; read-out: pGI50 (converted)
  GI50: 3.89 µM
A498 [4]; [20]
  CC50: 44.7 µM
A498 [4]; read-out: pTGI (converted)
  TGI: 15.5 µM
PC-3 [5]
  IC50: 2.1 µM
PC-3 [5]; read-out: GI50
  GI50: 2.1 µM
PC-3 [5]; [19]
  CC50: 90.3 µM
PC-3 [5]; read-out: TGI
  TGI: 84.2 µM
PC-3 [5]; read-out: pGI50 (converted)
  GI50: 2.63 µM
PC-3 [5]; [20]
  CC50: 79.4 µM
PC-3 [5]; read-out: pTGI (converted)
  TGI: 6.46 µM
SR [6]
  growth at 0.01 µM: 105%
A549 [7]
  growth at 0.01 µM: 101%
HOP-62 [8]
  growth at 0.01 µM: 99%
NCI-H23
  growth at 0.01 µM: 92%
SK-MEL-5
  growth at 0.01 µM: 97%
ACHN
  growth at 0.01 µM: 104%
SN12C
  growth at 0.01 µM: 102%
PC-3 [9]
  growth at 0.01 µM: 95%
HT-29 [10]
  growth at 0.1 µM: 93%
SF-268
  growth at 0.1 µM: 93%
OVCAR-4 [11]
  growth at 0.1 µM: 105%
MDA-MB-231 [12]
  growth at 0.1 µM: 105%
K562 [13]
  growth at 1 µM: 55%
NCI-H226
  growth at 1 µM: 96%
KM12
  growth at 1 µM: 56%
LOX IMVI
  growth at 1 µM: 93%
OVCAR-4 [14]
  growth at 1 µM: 105%
SK-OV-3
  growth at 1 µM: 107%
A498 [15]
  growth at 1 µM: 92%
MDA-MB-231 [16]
  growth at 1 µM: 77%
SR [17]
  growth at 100 µM: -40%
A549 [18]
  growth at 100 µM: -45%
Malme-3M
  growth at 100 µM: -91%
OVCAR-3
  growth at 100 µM: -1%
OVCAR-5
  growth at 100 µM: -55%
OVCAR-8
  growth at 100 µM: -52%
